From patent US20140243292A1, “SUBSITUTED 2-(CHROMAN-6-YLOXYL)-THIAZOLES AND THEIR USE AS PHARMACEUTICALS” (Sanofi, priority 2011, published 2014) come the findings set out here.

One may read the IC50 as the point on the concentration scale where inhibition reaches its midpoint. Broadly, the inhibition is the change of the read-out against control, counted positive when it falls.

This test addresses T1, human NCX1 (Homo sapiens, UniProt P32418).
T1 construct: expressed in transfected cells
As to the kind of experiment: NCX1 inhibition, reverse mode (Ca2+ influx into cells), FLIPR Fluo-4 assay. The test is classed as cell-based. Particulars: for IC50: inhibition of NCX1 in reverse mode (Ca2+ influx into cells), read-out: NCX1rv IC50. The text has this:
The sodium/calcium exchanger NCX1 can transport calcium ions and sodium ions through the cell membrane. The transport is an exchange of Ca^2+ and Na^+ in two directions depending on membrane potential and ion gradients. At the first direction, named “forward mode” or “calcium export mode”, Ca^2+ is transported out of the cell and Na^+ is transported into the cell. At the other direction, named “reverse mode” or “calcium import mode”, the transport directions are vice versa. The effect of the compounds of the invention on NCX1 was determined in CHO cells stably expressing human NCX1 (gene symbol SLC8A1; cf. WO 2009/115238). The assay is based on the monitoring of intracellular Ca^2+ concentrations using a calcium-sensitive fluorescence dye which is detected by means of a FLIPR device (Fluorimetric Imaging Plate Reader, Molecular Devices).
The assay is based on the monitoring of intracellular Ca^2+ concentrations using the calcium-sensitive dye Fluo-4. CHO cells expressing NCX1 were loaded with the dye by means of the acetoxymethyl ester Fluo-4 AM (Invitrogen, F14202), which is cleaved intracellularly by esterase activity to yield the charged species of free Fluo-4. After an preincubation period with the test compound, Gramicidine (Sigma, G5002) was added. Gramicidine is an ionophor for Na^+ ions mediating an increase of intracellular Na^+ ions. Consequently, intracellular Na^+ ions are exchanged against extracellular Ca^2+ ions (Ca^2+ influx, reverse mode). The intracellular elevation of Ca^2+ ions was detected by measuring the fluorescence of Fluo-4 at a wavelength of 520 nm by a FLIPR device.
Briefly, for the reverse mode transport assay 18000 cells per well were seeded into a 96 well microplate (Corning COSTAR 3904) and incubated overnight in culture medium (1× Nut Mix F12 (Ham) (Gibco, 21765-029); 10% (v/v) fetal calf serum (PAA Gold, A15-649); 450 μg/ml Geneticin (Gibco, 10131-027)). A total volume of 100 μl medium per well was used. For the preparation of the FLIPR assay, the culture medium was removed from the plates and 100 μl of dye solution (2 μM Fluo-4 AM; 0.02% (v/v) Pluronic F-127 (20%, Invitrogen, P3000MP); 0.1% (v/v) bovine albumin solution (30% (v/v), Sigma, A9205) in assay buffer (133.8 mM NaCl (Sigma, S5886); 4.7 mM KCl (Sigma, P3911); 1.25 mM MgCl2 (Merck, 1.05833.0250); 3.5 mM CaCl2 (Merck, 1.02083.0250); 5 mM glucose (Sigma, G7021); 10 mM Hepes (Sigma, H4034); 0.01% (v/v) Pluronic F-127 (5%, Sigma, P2443); 2.5 mM Probenecid (Maybridge, SB00915EB); pH 7.4)) were added into each well. The plates were incubated in the dark at room temperature for 80 min. After the incubation period, the dye solution was removed and the wells were washed with 100 μl of assay buffer. Then 80 μl of a solution of the test compound in assay buffer in different concentrations were added into the wells. The plates were incubated at 16° C. for 45 min. Meanwhile a 60 μM solution of Gramicidine in assay buffer (4° C.) was prepared and stored in the wells of a 96 well microplate (96 well microplate, polypropylene, U-shape (Greiner Bio-One, 650201)) at 4° C. until measurement was started. The fluorescence monitoring was performed at 240 measuring points with measurement intervals of 2 sec. After the fifth measuring point, 40 μl of the Gramicidine solution were added to each well of the assay plates to give a final Gramicidine concentration of 20 μM. For the determination of the IC50 values the minimal fluorescence value was subtracted from the maximal fluorescence value for all measuring points. The calculation of the IC50 values via the percentage inhibitions of Ca^2+ influx into cells (reverse mode) effected by the test compound was performed in Biost@t Speed 2.0.

The structures appear in SMILES notation. Counter-ions that a name gives are not always drawn.

Turning to `CCn1cc(CNCc2cnc(Oc3ccc4c(c3)CCC(c3ccccc3)O4)s2)c(C)n1` (stereo not drawn) [compound 139], the IC50 worked out at 500 nM. The same measure, in the same setting: the value for `O=C(Cc1ccccn1)NCc1cnc(Oc2ccc3c(c2)CCC(c2ccccc2)O3)s1` (stereo not drawn) [compound 19, hydrochloride] was 100 nM; that for `COC(=O)[C@@H]1CC(C)(C)CN1C(=O)c1cnc(Oc2ccc3c(c2)CC[C@@H](c2ccccc2)O3)s1` [compound 223] was 1300 nM. Still for that read-out and setting: next, `CC1(C(=O)O)CCN(C(=O)c2cnc(Oc3ccc4c(c3)CC[C@@H](c3ccccc3)O4)s2)C1` (stereo partly drawn) [compound 239]: 2400 nM.

With `CN(C)Cc1cnc(Oc2ccc3c(c2)CCC(c2ccccc2)O3)s1` (stereo not drawn) [compound 119], the half-inhibitory concentration (IC50) was found to be 400 nM. Same read-out and setting: next, `NC1C[C@@H]1NC(=O)c1cnc(Oc2ccc3c(c2)CC[C@@H](c2ccccc2)O3)s1` (stereo partly drawn) [compound 284, hydrochloride]: 200 nM; `OCCNCc1cnc(Oc2ccc3c(c2)CC[C@@H](c2ccccc2)O3)s1` [compound 266]: 100 nM. Still for that read-out and setting: next, `Cc1nc(C(=O)NCc2cnc(Oc3ccc4c(c3)CCC(c3ccccc3)O4)s2)cs1` (stereo not drawn) [compound 73]: 300 nM; `CN[C@H]1CN(C(=O)c2cnc(Oc3ccc4c(c3)CC[C@@H](c3ccccc3)O4)s2)CC[C@H]1C` [compound 285, hydrochloride]: 900 nM. The same measure, in the same setting: the value for `CCOC(=O)[C@@H](NC(=O)c1cnc(Oc2ccc3c(c2)CCC(c2cccnc2)O3)s1)C(C)C` (stereo partly drawn) [compound 263] was 25200 nM; that for `O=C(NCc1cnc(Oc2ccc3c(c2)CCC(c2ccccc2)O3)s1)c1ccncc1` (stereo not drawn) [compound 79] was 200 nM. Regarding `O=C(NCc1ccnc(Cl)c1)c1cnc(Oc2ccc3c(c2)CCC(c2cncc(F)c2)O3)s1` (stereo not drawn) [compound 247], the IC50 came to 700 nM. Consider `FC(F)(F)CNCc1cnc(Oc2ccc3c(c2)CCC(c2ccccc2)O3)s1` (stereo not drawn) [compound 107], for which the IC50 was 200 nM. As to `O=C(c1cnc(Oc2ccc3c(c2)CCC(c2ccccc2)O3)s1)N1CC[C@@H](O)C1` (stereo partly drawn) [compound 298], the IC50 amounted to 600 nM. Take `CC(C)c1ccc(NC(=O)c2cnc(Oc3ccc4c(c3)CC[C@@H](c3ccccc3)O4)s2)cc1` [compound 280]: the inhibition at 30 µM (NCX1 reverse mode, at 30 μM, read-out: Inhibition in % at 30 μM (NCX1rv; IC50 value not determined)) is 38%.

For `Cn1cc(S(=O)(=O)NCc2cnc(Oc3ccc4c(c3)CCC(c3ccccc3)O4)s2)cn1` (stereo not drawn) [compound 129], the IC50 is 900 nM. Still for that read-out and setting: the value for `O=C(NCc1ccncc1Cl)c1cnc(Oc2ccc3c(c2)CCC(c2ccccc2)O3)s1` (stereo not drawn) [compound 40] was 400 nM; that for `COC(=O)C1CN(C(=O)c2cnc(Oc3ccc4c(c3)CC[C@@H](c3ccccc3)O4)s2)CC1C(F)(F)F` (stereo partly drawn) [compound 221] was 300 nM. On the same count and under the same terms, next, `CCCNC(=O)c1sc(Oc2ccc3c(c2)CCC(c2ccccc2C)O3)nc1C` (stereo not drawn) [compound 332]: 10000 nM. Still for that read-out and setting: next, `NCC(=O)NCc1cnc(Oc2ccc3c(c2)CC[C@@H](c2ccccc2)O3)s1` [compound 302]: 400 nM; `O=C(N[C@H]1CCCC[C@H]1C(=O)O)c1cnc(Oc2ccc3c(c2)CC[C@@H](c2ccccc2)O3)s1` [compound 200]: 400 nM; `COC(=O)CNC(=O)c1cnc(Oc2ccc3c(c2)CCC(c2ccccc2)O3)s1` (stereo not drawn) [compound 294]: 200 nM. On to `O=C(Cc1cccnc1)NCc1cnc(Oc2ccc3c(c2)CCC(c2cccc(F)c2)O3)s1` (stereo not drawn) [compound 45, hydrochloride], for which the IC50 stood at 100 nM. Still for that read-out and setting: next, `c1ccc(C2CCc3cc(Oc4ncc(CN5CC6CCC(CC6)C5)s4)ccc3O2)cc1` (stereo not drawn) [compound 108]: 1400 nM; `COC(=O)C(C)(Cc1ccccc1)NC(=O)c1cnc(Oc2ccc3c(c2)CC[C@@H](c2ccccc2)O3)s1` (stereo partly drawn) [compound 218]: 2500 nM. The same measure, in the same setting: next, `COCCNCc1cnc(Oc2ccc3c(c2)CCC(c2ccccc2)O3)s1` (stereo not drawn) [compound 114]: 200 nM; `Cc1ccc(F)cc1C1CCc2cc(Oc3ncc(C(=O)NCCN4CCNC4=O)s3)ccc2O1` (stereo not drawn) [compound 349]: 200 nM.

For the compound `c1ccc(C2CCc3cc(Oc4ncc(CNCCCn5cccn5)s4)ccc3O2)cc1` (stereo not drawn) [compound 142], the IC50 stood at 300 nM.

On to `Cc1nc(Oc2ccc3c(c2)CC[C@@H](c2ccccc2)O3)sc1C(=O)NCc1ccno1` [compound 168], for which the half-maximal inhibitory concentration (IC50) turned out to be 200 nM. The same measure, in the same setting: the value for `Cc1cccc(C)c1C1CCc2cc(Oc3ncc(C(=O)NCc4ccno4)s3)ccc2O1` (stereo not drawn) [compound 331] was 5500 nM; that for `O=C(NCc1ccncc1)c1sc(Oc2ccc3c(c2)CCC(c2ccccc2)O3)nc1C(F)(F)F` (stereo not drawn) [compound 30, hydrochloride] was 300 nM; that for `CC(C)[C@H](NC(=O)c1cnc(Oc2ccc3c(c2)CCC(c2cccnc2)O3)s1)C(=O)O` (stereo partly drawn) [compound 272] was 15600 nM. Still for that read-out and setting: the value for `CC(C)[C@H](NC(=O)c1cnc(Oc2ccc3c(c2)CC[C@@H](c2ccccc2)O3)s1)C(=O)O` [compound 197] was 600 nM; that for `O=C(Cc1ccncc1)NCc1cnc(Oc2ccc3c(c2)CCC(c2ccccc2)O3)s1` (stereo not drawn) [compound 43, hydrochloride] was 300 nM; that for `Nc1cc(CNC(=O)c2cnc(Oc3ccc4c(c3)CCC(c3ccccc3)O4)s2)ccn1` (stereo not drawn) [compound 11] was 400 nM.

As to `CC(C)NCc1cnc(Oc2ccc3c(c2)CCC(c2ccccc2)O3)s1` (stereo not drawn) [compound 113], the 50% inhibitory concentration (IC50) came out at 300 nM.

Consider `O=C(NCc1cnc(Oc2ccc3c(c2)CCC(c2ccccc2)O3)s1)c1ncccn1` (stereo not drawn) [compound 87], for which the half-maximal inhibitory concentration (IC50) was determined as 400 nM. In the case of `Cc1c(CNCc2cnc(Oc3ccc4c(c3)CCC(c3ccccc3)O4)s2)cnn1C` (stereo not drawn) [compound 138], the 50% inhibitory concentration (IC50) amounted to 300 nM. Same read-out and setting: the value for `CC[C@@H](NC(=O)c1cnc(Oc2ccc3c(c2)CCC(c2ccccc2)O3)s1)c1ccc(OC)nc1` (stereo partly drawn) [compound 27] was 300 nM; that for `CC(C)CC(C)(NC(=O)c1cnc(Oc2ccc3c(c2)CC[C@@H](c2ccccc2)O3)s1)C(=O)O` (stereo partly drawn) [compound 242] was 700 nM. The same measure, in the same setting: the value for `Cc1noc(C)c1CCCNCc1cnc(Oc2ccc3c(c2)CCC(c2ccccc2)O3)s1` (stereo not drawn) [compound 153] was 500 nM; that for `O=C(NCc1cn2ccccc2n1)c1cnc(Oc2ccc3c(c2)CCC(c2ccccc2)O3)s1` (stereo not drawn) [compound 41] was 5000 nM; that for `FC1(F)CCN(Cc2cnc(Oc3ccc4c(c3)CCC(c3ccccc3)O4)s2)CC1` (stereo not drawn) [compound 109] was 700 nM. For the compound `CCOC(=O)[C@@H](NC(=O)c1cnc(Oc2ccc3c(c2)CC[C@@H](c2ccccc2)O3)s1)C(C)C` [compound 186], the IC50 was 700 nM. The same measure, in the same setting: next, `Cc1cc(NCc2cnc(Oc3ccc4c(c3)CCC(c3ccccc3)O4)s2)on1` (stereo not drawn) [compound 111]: 800 nM; `CCn1cc(C(=O)NCc2cnc(Oc3ccc4c(c3)CCC(c3ccccc3)O4)s2)cn1` (stereo not drawn) [compound 72]: 300 nM; `COC(=O)CNC(=O)c1cnc(Oc2ccc3c(c2)CCC(c2cccnc2)O3)s1` (stereo not drawn) [compound 250]: 1200 nM.

With `COC(=O)[C@@H](NC(=O)c1cnc(Oc2ccc3c(c2)CC[C@@H](c2ccccc2)O3)s1)C(C)(C)C` [compound 220], the IC50 was determined as 600 nM. The same measure, in the same setting: the value for `Cc1nc(Oc2ccc3c(c2)CCC(c2ccccc2)O3)sc1C(=O)NCc1ccno1` (stereo not drawn) [compound 166] was 300 nM; that for `Nc1cc(CNCc2cnc(Oc3ccc4c(c3)CCC(c3ccccc3)O4)s2)ccn1` (stereo not drawn) [compound 155] was 400 nM.

As for `O=C(N[C@@H](Cc1ccccc1)C(=O)O)c1cnc(Oc2ccc3c(c2)CC[C@@H](c2ccccc2)O3)s1` [compound 244], the IC50 turned out to be 600 nM.
